According to US20230136941A1, “IMPROVING PLANT NUTRITIONAL VALUE AND GROWTH THROUGH ENHANCEMENT OF ESSENTIAL AMINO ACID LEVELS” (Board of Trustees of Michigan State University, priority 2020, published 2023):

Assays:
[1] = tested on: wild type (Col-0), eva1, ipms1-4 and ipms1-5 seedlings; assay: Primary root elongation of seedlings germinated and grown on medium containing chemical inhibitors (chronic treatment); assay type: in vivo, Arabidopsis thaliana
Method: Except for chronical treatments with specified chemicals, Arabidopsis seeds were stratified and grown on medium containing half-strength Linsmaier and Skoog nutrients (½ LS; Caisson Labs, LSP03), 1% sucrose and 0.4% phytagel (Sigma-Aldrich, P8169) in chambers configured with 21° C. and 16-hour light: 8-hour dark cycle.
In another pharmaceutical examination using AZD-8055, wortmannin and Lat B (FIG. 6A-6G, 6L-6Q), wild type (Col-0), eva1, ipms1-4 and ipms1-5 lines germinated and grew on vertically staged Petri dishes containing Arabidopsis growth medium containing specific chemical inhibitors.

[2] = tested on: wild type cotyledon epidermal cells expressing GFP-δTIP; assay: Confocal imaging of vacuole morphology after temporal chemical treatment of wild type seedlings; details: 5 μM AZD-8055, 2 or 4 hours
[3] = tested on: eva1 cotyledon epidermal cells expressing GFP-δTIP; assay: Confocal imaging of vacuole morphology after temporal chemical treatment of eva1 seedlings; assay type: cell-based, Arabidopsis thaliana
[4] = tested on: omr1-11^D cotyledon epidermal cells; assay: ER strand phenotype of omr1-11^D after Torin2 treatment; assay type: cell-based, Arabidopsis thaliana; details: 2-hour Torin2 treatment
[5] = tested on: wild type (Col-0), ipms1-4 and ipms1-5 seedlings; assay: Root growth after transplant of 10-day old seedlings to Lat B medium; assay type: in vivo, Arabidopsis thaliana
Method: To examine the effect of latrunculin B (Lat B) on root elongation (FIG. 6L-6Q), wild type (Col-0), ipms1-4 and ipms1-5 lines germinated and grew on horizontally staged Petri dishes containing Arabidopsis growth medium (½ LS, 1% sucrose and 0.4% phytagel). 10-day old seedlings were transplanted to Petri dishes containing ½ LS, 1% sucrose and 1% Agar (Acumedia, 7558A) medium containing DMSO or 50 nM Lat B or 100 nM Lat B. Photographs were acquired immediately after the transplant and the Petri dishes were vertically staged in a Percival chamber.
Photographs were also acquired 8 days after the transplant.
Experiments were designed to validate this hypothesis by testing the sensitivity of the ipms1 alleles to the F-actin depolymerizing reagent latrunculin B (Lat B) (Cao et al., 2016). The primary root length of 10-day old ipms1-4 and ipms1-5 was approximately 50% of WT (FIG. 4H-4I). Seedlings of all genotypes were then transferred to medium containing DMSO or 50 nM or 100 nM Lat B in DMSO.

[6] = nine-day old seedlings grown on Lat B medium (FIG. 6P-6Q)
[7] = 25 μM Lat B, two-hour treatment

Structure (SMILES): COc1ccc(-c2ccc3c(N4CCOC[C@@H]4C)nc(N4CCOC[C@@H]4C)nc3n2)cc1CO [AZD-8055]
- ipms1 primary root elongation ([1]; AZD-8055 higher concentrations (0.4, 0.6 and 1.0 μM), chronic): inhibited
- ipms1 primary root elongation ([1]; AZD-8055 lower concentrations (0.1 and 0.2 μM), chronic): promoted
- morphology of the central vacuole and trans-vacuolar strands in wild type cells [2]: did not exhibit significant changes
- small vacuoles and trans-vacuolar strands in eva1 ([3]; 5 μM AZD-8055, 2 hours): reduced in appearance
- vacuole appearance of eva1 cells ([3]; 5 μM AZD-8055, 4 hours): indistinguishable from wild type
- vacuolar mutant phenotypes of eva1 (FIG. 6A-6F legend) ([3]; legend prints 5 mM AZD-8055, 2 and 4 hours): rescues vacuolar mutant phenotypes of eva1

Structure (SMILES): Nc1ccc(-c2ccc3ncc4ccc(=O)n(-c5cccc(C(F)(F)F)c5)c4c3c2)cn1 [Torin2, 9-(6-aminopyridin-3-yl)-1-(3-(trifluoromethyl)phenyl) benzo[h][1,6]naphthyridin-2(1H)-one]
- presumably unfused vacuoles and trans-vacuolar strands in eva1 ([3]; 1 μM Torin2, 2 hours): no longer present
- enhanced ER strands in omr1-11^D [4]: recovered

Structure (SMILES): C/C1=C/C(=O)O[C@@H]2C[C@@H](CC[C@H](C)/C=C\CC1)O[C@@](O)([C@@H]1CSC(=O)N1)C2 [Lat B, latrunculin B]
- promotion of root elongation ([1]; Lat B treatment, chronic, increasing concentrations): not observed
- primary root length vs DMSO control, ipms1 mutants [1, 6]: less effects
- primary root length vs DMSO control, wild type [1, 6]: significant differences
- small vacuoles in eva1 [3, 7]: persisted
- trans-vacuolar strands in eva1 [3, 7]: disappeared
- primary root length of ipms1-4 and ipms1-5 compared to WT ([5]; 50 nM Lat B, 8 days after transplant (DMSO medium: approximately 65%)): 80%
- formation of lateral roots in WT seedlings ([5]; 50 nM or 100 nM Lat B, 8 days after transplant): promoted the formation of lateral roots
- primary root length of ipms1-4 and ipms1-5 compared to WT ([5]; 100 nM Lat B, 8 days after transplant): not significantly different from WT
